Results: ChEMBL document CHEMBL4665817, “Immobilized Metal Affinity Chromatography as a Drug Discovery Platform for Metalloenzyme Inhibitors” (J Med Chem, 2020)
Activity calls are given as the source filed them. The calls are words filed in the database; no cut-off is given here.

Legend:
Settings in all cases: dose 2.55 µmol
[1] = Binding affinity to zinc ion assessed as accounting ratio by measuring total compound detected/total compound adsorbed at 2.55 umol by immobilized metal-ion affinity chromatography
[2] = Binding affinity to Zinc ion assessed as performance ratio ratio by measuring product of accounting ratio and retention ratio at 2.55 umol by immobilized metal-ion affinity chromatography
[3] = Binding affinity to Zinc ion assessed as retention ratio by measuring compound detected in elution fraction/total compound detected at 2.55 umol by immobilized metal-ion affinity chromatography
[4] = Binding affinity to cupric ion assessed as retention ratio by measuring compound detected in elution fraction/total compound detected at 2.55 umol by immobilized metal-ion affinity chromatography
[5] = Binding affinity to Gallium ion assessed as performance ratio ratio by measuring product of accounting ratio and retention ratio at 2.55 umol by immobilized metal-ion affinity chromatography
[6] = Binding affinity to Ferric ion assessed as performance ratio ratio by measuring product of accounting ratio and retention ratio at 2.55 umol by immobilized metal-ion affinity chromatography
[7] = Binding affinity to cupric ion assessed as performance ratio ratio by measuring product of accounting ratio and retention ratio at 2.55 umol by immobilized metal-ion affinity chromatography
[8] = Binding affinity to cupric ion assessed as accounting ratio by measuring total compound detected/total compound adsorbed at 2.55 umol by immobilized metal-ion affinity chromatography
[9] = Binding affinity to Nickel cation assessed as accounting ratio by measuring total compound detected/total compound adsorbed at 2.55 umol by immobilized metal-ion affinity chromatography
[10] = Binding affinity to Nickel cation assessed as retention ratio by measuring compound detected in elution fraction/total compound detected at 2.55 umol by immobilized metal-ion affinity chromatography
[11] = Binding affinity to Gallium ion assessed as retention ratio by measuring compound detected in elution fraction/total compound detected at 2.55 umol by immobilized metal-ion affinity chromatography
[12] = Binding affinity to Ferric ion assessed as retention ratio by measuring compound detected in elution fraction/total compound detected at 2.55 umol by immobilized metal-ion affinity chromatography
[13] = Binding affinity to gallium ion assessed as accounting ratio by measuring total compound detected/total compound adsorbed at 2.55 umol by immobilized metal-ion affinity chromatography
[14] = Binding affinity to ferric ion assessed as accounting ratio by measuring total compound detected/total compound adsorbed at 2.55 umol by immobilized metal-ion affinity chromatography
[15] = Binding affinity to Nickel cation assessed as performance ratio ratio by measuring product of accounting ratio and retention ratio at 2.55 umol by immobilized metal-ion affinity chromatography
[16] = Binding affinity to Zinc ion at 2.55 umol in presence of DTT by immobilized metal-ion affinity chromatography

SMILES: Cc1[nH]c2ccccc2c1CCNCc1ccc(/C=C/C(=O)NO)cc1
- Ratio [1]: 0.7
- Ratio [2]: 0.7
- Ratio [3]: 1
- Ratio [4]: 1
- Ratio [5]: 0
- Ratio [6]: 0.03
- Ratio [7]: 0.25
- Ratio [8]: 0.25
- Ratio [9]: 0.84
- Ratio [10]: 1
- Ratio [11]: 0
- Ratio [12]: 1
- Ratio [13]: 0
- Ratio [14]: 0.03
- Ratio [15]: 0.84

SMILES: COc1c(N2C[C@@H]3CCCN[C@@H]3C2)c(F)cc2c(=O)c(C(=O)O)cn(C3CC3)c12
- Ratio [1]: 1.05
- Ratio [2]: 1.05
- Ratio [3]: 1
- Ratio [4]: 0.95
- Ratio [5]: 0.02
- Ratio [6]: 0.15
- Ratio [7]: 0.24
- Ratio [8]: 0.25
- Ratio [9]: 0.89
- Ratio [10]: 1
- Ratio [11]: 0.14
- Ratio [12]: 0.73
- Ratio [13]: 0.16
- Ratio [14]: 0.21
- Ratio [15]: 0.89

SMILES: O=C(/C=C/c1cccc(S(=O)(=O)Nc2ccccc2)c1)NO
- Ratio [1]: 1.21
- Ratio [2]: 1.21
- Ratio [3]: 1
- Ratio [4]: 1
- Ratio [5]: 0.23
- Ratio [6]: 0
- Ratio [7]: 0.13
- Ratio [8]: 0.13
- Ratio [9]: 1.08
- Ratio [10]: 1
- Ratio [11]: 1
- Ratio [12]: 0
- Ratio [13]: 0.23
- Ratio [14]: 0
- Ratio [15]: 1.08

SMILES: C[C@H](CSC(=O)c1ccccc1)C(=O)N1C[C@@H](Sc2ccccc2)C[C@H]1C(=O)O
- Ratio [1]: 1.4
- Ratio [2]: 0.01
- Ratio [3]: 0.01
- Ratio [4]: 0
- Ratio [5]: 0.01
- Ratio [6]: 0
- Ratio [7]: 0
- Ratio [8]: 1.51
- Ratio [9]: 1.29
- Ratio [10]: 0.01
- Ratio [11]: 0.01
- Ratio [12]: 0
- Ratio [13]: 1.43
- Ratio [14]: 1.46
- Ratio [15]: 0.01

SMILES: C[C@H](CSSC[C@@H](C)C(=O)N1CCC[C@H]1C(=O)O)C(=O)N1CCCC1C(=O)O (stereo partly drawn)
- Activity [16]: inactive

SMILES: O=c1cccccc1O
- Ratio [1]: 0.97
- Ratio [2]: 0.97
- Ratio [3]: 1
- Ratio [4]: 1
- Ratio [5]: 0
- Ratio [6]: 0
- Ratio [7]: 1.26
- Ratio [8]: 1.26
- Ratio [9]: 0.7
- Ratio [10]: 1
- Ratio [11]: 0
- Ratio [12]: 0
- Ratio [13]: 0
- Ratio [14]: 0
- Ratio [15]: 0.7

SMILES: NCCCC[C@H](N[C@@H](CCc1ccccc1)C(=O)O)C(=O)N1CCC[C@H]1C(=O)O
- Ratio [1]: 0.89
- Ratio [2]: 0
- Ratio [3]: 0
- Ratio [4]: 0
- Ratio [5]: 0
- Ratio [6]: 0
- Ratio [7]: 0
- Ratio [8]: 0.88
- Ratio [9]: 0.72
- Ratio [10]: 0
- Ratio [11]: 0
- Ratio [12]: 0
- Ratio [13]: 0.93
- Ratio [14]: 0.9
- Ratio [15]: 0

SMILES: O=C(CCCCCCC(=O)Nc1ccccc1)NO
- Ratio [1]: 1.19
- Ratio [2]: 1.19
- Ratio [3]: 1
- Ratio [4]: 0.61
- Ratio [5]: 0.41
- Ratio [6]: 0
- Ratio [7]: 0.08
- Ratio [8]: 0.14
- Ratio [9]: 1.14
- Ratio [10]: 1
- Ratio [11]: 1
- Ratio [12]: 0
- Ratio [13]: 0.41
- Ratio [14]: 0
- Ratio [15]: 1.14

SMILES: O=C(N[C@H]1CCS[C@H]2CCC[C@@H](C(=O)O)N2C1=O)[C@H](Cc1ccccc1)SS[C@@H](Cc1ccccc1)C(=O)N[C@H]1CCS[C@H]2CCC[C@@H](C(=O)O)N2C1=O
- Activity [16]: inactive

SMILES: O=C(O)c1cc(/N=N/c2ccc(S(=O)(=O)Nc3ccccn3)cc2)ccc1O
- Ratio [1]: 0.61
- Ratio [2]: 0.48
- Ratio [3]: 0.79
- Ratio [4]: 0.63
- Ratio [5]: 0.82
- Ratio [6]: 0.79
- Ratio [7]: 0.63
- Ratio [8]: 1
- Ratio [9]: 0.89
- Ratio [10]: 1
- Ratio [11]: 0.99
- Ratio [12]: 1
- Ratio [13]: 0.83
- Ratio [14]: 0.79
- Ratio [15]: 0.89

SMILES: Nc1ccccc1NC(=O)c1ccc(CNC(=O)OCc2cccnc2)cc1
- Ratio [1]: 0.83
- Ratio [2]: 0.01
- Ratio [3]: 0.01
- Ratio [4]: 0.02
- Ratio [5]: 0.01
- Ratio [6]: 0
- Ratio [7]: 0.01
- Ratio [8]: 0.59
- Ratio [9]: 0.35
- Ratio [10]: 0.6
- Ratio [11]: 0.01
- Ratio [12]: 0
- Ratio [13]: 0.98
- Ratio [14]: 0.99
- Ratio [15]: 0.21

SMILES: C[C@H](CS)C(=O)N1CCC[C@H]1C(=O)O
- Ratio [1]: 1.17
- Ratio [2]: 1.17
- Ratio [3]: 1
- Ratio [4]: 0
- Ratio [5]: 0
- Ratio [6]: 0
- Ratio [7]: 0
- Ratio [8]: 0
- Ratio [9]: 0
- Ratio [10]: 0
- Ratio [11]: 0
- Ratio [12]: 0
- Ratio [13]: 0
- Ratio [14]: 0
- Ratio [15]: 0

SMILES: CC(=O)Nc1ccc(C(=O)Nc2ccccc2N)cc1
- Ratio [1]: 1.01
- Ratio [2]: 0
- Ratio [3]: 0
- Ratio [4]: 0
- Ratio [5]: 0
- Ratio [6]: 0
- Ratio [7]: 0
- Ratio [8]: 0.99
- Ratio [9]: 1
- Ratio [10]: 0.01
- Ratio [11]: 0
- Ratio [12]: 0
- Ratio [13]: 0.99
- Ratio [14]: 1.01
- Ratio [15]: 0.01

SMILES: O=C(N[C@H]1CCS[C@H]2CCC[C@@H](C(=O)O)N2C1=O)[C@@H](S)Cc1ccccc1
- Ratio [1]: 1.43
- Ratio [2]: 1.43
- Ratio [3]: 1
- Ratio [4]: 0
- Ratio [5]: 0
- Ratio [6]: 0
- Ratio [7]: 0
- Ratio [8]: 0
- Ratio [9]: 0.19
- Ratio [10]: 1
- Ratio [11]: 0
- Ratio [12]: 0
- Ratio [13]: 0
- Ratio [14]: 0
- Ratio [15]: 0.19

SMILES: Cc1ccc(Cl)c(Nc2ccccc2C(=O)O)c1Cl
- Ratio [1]: 0.97
- Ratio [2]: 0
- Ratio [3]: 0
- Ratio [4]: 0
- Ratio [5]: 0
- Ratio [6]: 0
- Ratio [7]: 0
- Ratio [8]: 1.05
- Ratio [9]: 0.96
- Ratio [10]: 0
- Ratio [11]: 0
- Ratio [12]: 0
- Ratio [13]: 1.01
- Ratio [14]: 0.99
- Ratio [15]: 0

SMILES: C[C@H](CSS[C@@H](Cc1ccccc1)C(=O)N[C@H]1CCS[C@H]2CCC[C@@H](C(=O)O)N2C1=O)C(=O)N1CCC[C@H]1C(=O)O
- Activity [16]: inactive

SMILES: C[C@H](N[C@@H](CCc1ccccc1)C(=O)O)C(=O)N1CCC[C@H]1C(=O)O
- Ratio [1]: 0.98
- Ratio [2]: 0.01
- Ratio [3]: 0.01
- Ratio [4]: 0
- Ratio [5]: 0
- Ratio [6]: 0
- Ratio [7]: 0
- Ratio [8]: 0.99
- Ratio [9]: 0.81
- Ratio [10]: 0
- Ratio [11]: 0
- Ratio [12]: 0
- Ratio [13]: 1
- Ratio [14]: 1.02
- Ratio [15]: 0

SMILES: CC1(C)Cc2c(-c3ccccc3)c(-c3ccc(Cl)cc3)c(CC(=O)O)n2C1
- Ratio [1]: 1.05
- Ratio [2]: 0.03
- Ratio [3]: 0.03
- Ratio [4]: 0
- Ratio [5]: 0.06
- Ratio [6]: 0.37
- Ratio [7]: 0
- Ratio [8]: 1.03
- Ratio [9]: 1.03
- Ratio [10]: 0.03
- Ratio [11]: 0.06
- Ratio [12]: 0.39
- Ratio [13]: 1.08
- Ratio [14]: 0.97
- Ratio [15]: 0.03

SMILES: Nc1ccc(C(=O)O)c(O)c1
- Ratio [1]: 0.87
- Ratio [2]: 0
- Ratio [3]: 0
- Ratio [4]: 0
- Ratio [5]: 0.52
- Ratio [6]: 0.08
- Ratio [7]: 0
- Ratio [8]: 0.87
- Ratio [9]: 0.83
- Ratio [10]: 0
- Ratio [11]: 0.74
- Ratio [12]: 0.51
- Ratio [13]: 0.69
- Ratio [14]: 0.15
- Ratio [15]: 0
